Assay results from patent publication US20060281719A1, “Oestrogen-17-sulphamates as inhibitors of steroid sulphatase” (priority 2000, published 2006).
Where “and” joins values, the source holds several entries; their conditions need not be identical. Identical values can stand only once. Like-named read-outs stand apart in the source and are kept apart here.

Key:
[1] = Plate assay % inhibition; assay type: cell-based; conditions: -ve % means stimulation
[2] = molecular target: T1, oestrone sulphatase (E1-STS) (Homo sapiens, UniProt P08842); assay: Inhibition of steroid sulphatase activity in placental microsomes; assay type: biochemical; design: from tissue; host or cells: human term placenta (microsomal preparation); conditions: for inhibition at 0.01 µM / inhibition at 1 µM: read-out: Placental Microcsomes % inhibition
T1 sequence (P08842 22-583): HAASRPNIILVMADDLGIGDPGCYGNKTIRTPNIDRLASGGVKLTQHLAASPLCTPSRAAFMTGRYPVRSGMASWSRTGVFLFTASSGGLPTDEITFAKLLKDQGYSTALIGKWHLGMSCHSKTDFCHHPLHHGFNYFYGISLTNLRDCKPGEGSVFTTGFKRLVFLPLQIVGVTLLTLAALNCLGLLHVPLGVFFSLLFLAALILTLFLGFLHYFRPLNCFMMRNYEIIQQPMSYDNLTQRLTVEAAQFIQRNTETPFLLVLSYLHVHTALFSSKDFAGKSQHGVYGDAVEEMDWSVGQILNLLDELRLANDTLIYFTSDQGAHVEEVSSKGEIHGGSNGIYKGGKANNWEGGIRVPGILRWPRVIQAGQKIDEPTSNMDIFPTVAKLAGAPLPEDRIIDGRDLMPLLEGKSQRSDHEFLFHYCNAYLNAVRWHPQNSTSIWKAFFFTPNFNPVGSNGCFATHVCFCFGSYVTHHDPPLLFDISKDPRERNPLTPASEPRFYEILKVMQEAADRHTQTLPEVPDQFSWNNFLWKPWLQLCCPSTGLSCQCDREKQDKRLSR
Method: Inhibition of Steroid Sulphatase Activity in Placental Microsomes
Sulphatase-positive human placenta from normal term pregnancies are thoroughly minced with scissors and washed once with cold phosphate buffer (pH 7.4, 50 mM) then re-suspended in cold phosphate buffer (5 ml/g tissue). Homogenisation is accomplished with an Ultra-Turrax homogeniser, using three 10 second bursts separated by 2 minute cooling periods in ice. Nuclei and cell debris are removed by centrifuging (4° C.) at 2000 g for 30 minutes and portions (2 ml) of the supernatant are stored at 20° C.
Incubations (1 ml) are carried out using a protein concentration of 100 mg/ml, substrate concentration of 20 mM [6,7-3H]oestrone-3-sulphate (specific activity 60 Ci/mmol from New England Nuclear, Boston, Mass., U.S.A.) and an incubation time of 20 minutes at 37° C. If necessary eight concentrations of compounds are employed: 0 (i.e. control); 0.05 mM; 0.1 mM; 0.2 mM; 0.4 mM; 0.6 mM; 0.8 mM; 1.0 mM. After incubation each sample is cooled and the medium (1 ml) was pipetted into separate tubes containing [14C]oestrone (7×10^3 dpm) (specific activity 97 Ci/mmol from Amersham International Radiochemical Centre, Amersham, U.K.). The mixture is shaken thoroughly for 30 seconds with toluene (5 ml). […] A portion (2 ml) of the organic phase was removed, evaporated and the 3H and 14C content of the residue determined by scintillation spectrometry. The mass of oestrone-3-sulphate hydrolysed is calculated from the 3H counts obtained (corrected for the volumes of the medium and organic phase used, and for recovery of [14C]oestrone added) and the specific activity of the substrate.

[3] = molecular target: T1, oestrone sulphatase (E1-STS); assay: Inhibition of steroid sulphatase (E1-STS) activity in intact MCF-7 breast cancer cells; assay type: cell-based

COc1cc2c(cc1O)CCC1C2CC[C@@]2(C)C1CC[C@@]2(O)Cc1ccccc1 (some centres unmarked) [BLE01014]
Plate assay % inhibition ([1]; 0.1 μM): −14% | Plate assay % inhibition ([1]; 1 μM): −14%

CCCCCN(CCCCC)S(=O)(=O)O[C@H]1CCC2C3CCc4cc(O)ccc4C3CC[C@@]21C (stereo partly drawn) [BLE99073, 3-Hydroxyestra-1,3,5(10)-trien-17β-O—(N,N-dipentyl)sulfamate]
melting point: 93 to 96 °C | inhibition at 0.01 µM [2]: 1.2% | inhibition at 1 µM [2]: -11.8%

COc1cc2c(cc1O)CCC1C2CC[C@@]2(C)C1CC[C@@]2(O)Cc1ccc(C(C)(C)C)cc1 (some centres unmarked) [BLE01008]
Plate assay % inhibition ([1]; 0.1 μM): −12% | Plate assay % inhibition ([1]; 1 μM): −15%

C[C@]12CCC3c4ccc(O)cc4CCC3C1CC[C@@H]2OS(=O)(=O)N(Cc1ccccc1)Cc1ccccc1 (stereo partly drawn) [BLE99060, 3-Hydroxyestra-1,3,5(10)-trien-17β-O—(N,N-dibenzyl)sulfamate]
melting point: 60 to 63 °C | inhibition at 0.01 µM ([2]; 10 nM, -ve % means stimulation): -3.2% | inhibition at 1 µM ([2]; 1 μM, -ve % means stimulation): 1.36%

CN(C)S(=O)(=O)O[C@@H]1CCC2C3CCc4cc(OCc5ccccc5)ccc4C3CC[C@@]21C (some centres unmarked)
melting point: 82 to 86 °C (dec.)

COc1cc2c(cc1OS(N)(=O)=O)CCC1C2CCC2(C)C1CCC2(O)Cc1ccccc1 (centres unmarked) [BLE01018]
inhibition at 0.1 µM ([1]; 0.1 μM): -19% | inhibition at 1 µM ([1]; 1 μM): -12%

C[C@]12CCC3c4ccc(OCc5ccccc5)cc4CCC3C1CC[C@H]2OS(=O)(=O)N(Cc1ccccc1)Cc1ccccc1 (some centres unmarked)
melting point: 115 to 116 °C

C[C@]12CCC3c4ccc(OCc5ccccc5)cc4CCC3C1CC[C@@H]2OS(N)(=O)=O (some centres unmarked)
melting point: 108 to 109 °C

CN(C)S(=O)(=O)O[C@H]1CC[C@H]2[C@@H]3CCc4cc(OS(N)(=O)=O)ccc4[C@H]3CC[C@]12C [BLE99069, 3-O-Sulfamoyl-estra-1,3,5(10)-trien-17β-O—(N,N-dimethyl)sulfamate]
Plate assay % inhibition ([1]; 0.1 μM): 3% | Plate assay % inhibition ([1]; 1 μM): 10% | Placental Microcsomes % inhibition ([2]; 10 nM, -ve % means stimulation): 30.3^1% | Placental Microcsomes % inhibition ([2]; 1 μM, -ve % means stimulation): 96.3^1%

CCCCCN(CCCCC)S(=O)(=O)O[C@@H]1CC[C@H]2[C@@H]3CCc4cc(OS(N)(=O)=O)ccc4[C@H]3CC[C@]12C [BLE00083B, 3-O-Sulfamoyl-estra-1,3,5(10)-trien-17α-O—(N,N-dipentyl)sulfamate]
Plate assay % inhibition ([1]; 0.1 μM): 8% | Plate assay % inhibition ([1]; 10 μM): 24%

CC1=C2CCC3c4ccc(OS(N)(=O)=O)cc4CCC3C2CC1 (centres unmarked) [BLE00086]
inhibition at 0.1 µM ([1]; 0.1 μM): 8% | inhibition at 1 µM ([1]; 1 μM): 3% | inhibition at 10 µM ([1]; 10 μM): 14%

COc1cc2c(cc1OS(N)(=O)=O)CCC1C2CCC2(C)C1CCC2(O)Cc1ccc(C(C)(C)C)cc1 (centres unmarked) [BLE01016]
inhibition at 0.1 µM ([1]; 0.1 μM): -14% | inhibition at 1 µM ([1]; 1 μM): -10% | inhibition at 10 µM ([1]; 10 μM): -3%

CC1=C2CCC3c4ccc(OS(N)(=O)=O)cc4CCC3C2CC1 (centres unmarked)
melting point: 172 to 176 °C

C[C@]12CCC3c4ccc(OS(N)(=O)=O)cc4CCC3C1CC[C@H]2OS(=O)(=O)N(Cc1ccccc1)Cc1ccccc1 (stereo partly drawn) [BLE99068, 3-O-Sulfamoyl-estra-1,3,5(10)-trien-17α-O—(N,N-dibenzyl)sulfamate]
inhibition at 0.1 µM ([1]; 0.1 μM): -18% | inhibition at 1 µM ([1]; 1 μM): -1% | inhibition at 10 µM ([1]; 10 μM): 19% | inhibition at 0.01 µM ([2]; 10 nM, -ve % means stimulation): 4.9% | inhibition at 1 µM ([2]; 1 μM, -ve % means stimulation): 58.2%

CC12CCC3c4ccc(OS(N)(=O)=O)cc4CCC3C1CCC2OS(N)(=O)=O (centres unmarked) [BLE99031B]
inhibition at 0.1 µM ([1]; 0.1 μM): 7% | inhibition at 1 µM ([1]; 1 μM): 12% | inhibition at 10 µM ([1]; 10 μM): 32%

CCCCCN(CCCCC)S(=O)(=O)O[C@H]1CCC2C3CCc4cc(OS(N)(=O)=O)ccc4C3CC[C@@]21C (stereo partly drawn) [BLE99074, 3-O-Sulfamoyl-estra-1,3,5(10)-trien-17β-O—(N,N-dipentyl)sulfamate]
melting point: 105 to 107 °C | inhibition at 1 µM ([2]; 1 μM, -ve % means stimulation): 23.7%

NS(=O)(=O)Oc1ccc(C23CC4CC(CC(c5ccc(O)cc5)(C4)C2)C3)cc1 [Compound 21, 4′-hydroxy-(1,3-adamantanediyl)diphenyl-4-O-sulphamate]
% Inhibition of E1-STS activity in MCF-7 cells ([3]; 0.1 μM): <10% | % Inhibition of E1-STS activity in MCF-7 cells ([3]; 1 μM): 16.3 ± 1.5% | % Inhibition of E1-STS activity in MCF-7 cells ([3]; 10 μM): 64.1 ± 1.1% | % Inhibition of E1-STS activity in placental microsomes ([2]; 10 μM): <10% | % Inhibition of E1-STS activity in placental microsomes ([2]; 25 µM): 15.9 ± 0.9% | % Inhibition of E1-STS activity in placental microsomes ([2]; 50 µM): 32.5 ± 1.1% | % Inhibition of E1-STS activity in placental microsomes ([2]; 100 µM): 60.1 ± 3.4%

NS(=O)(=O)Oc1ccc2oc3ccccc3c2c1 [Compound 9, Dibenzofuran-2-O-sulphamate]
% Inhibition of E1-STS activity in MCF-7 cells ([3]; 0.1 μM): 21.3 ± 1.5% | % Inhibition of E1-STS activity in MCF-7 cells ([3]; 1 μM): 67.9 ± 1.9% | % Inhibition of E1-STS activity in MCF-7 cells ([3]; 10 μM): 97.1 ± 0.8% | % Inhibition of E1-STS activity in placental microsomes ([2]; 10 μM): 28.8 ± 3.2% | % Inhibition of E1-STS activity in placental microsomes ([2]; 25 µM): 48.5 ± 0.5% | % Inhibition of E1-STS activity in placental microsomes ([2]; 50 µM): 62.0 ± 2.8% | % Inhibition of E1-STS activity in placental microsomes ([2]; 100 µM): 75.8 ± 1.2%

CCCCCN(CCCCC)S(=O)(=O)O[C@@H]1CC[C@H]2[C@@H]3CCc4cc(O)ccc4[C@H]3CC[C@]12C [BLE00082, 3-Hydroxyestra-1,3,5(10)-trien-17α-O—(N,N-dipentyl)sulfamate]
Plate assay % inhibition ([1]; 1 μM): 24%

NS(=O)(=O)Oc1ccc(S(=O)(=O)c2ccc(OS(N)(=O)=O)cc2)cc1 [Compound 14, Sulphonyldiphenyl-4,4′-O,O-bis-sulphamate]
% Inhibition of E1-STS activity in MCF-7 cells ([3]; 0.1 μM): <10% | % Inhibition of E1-STS activity in MCF-7 cells ([3]; 1 μM): 50.6 ± 3.3% | % Inhibition of E1-STS activity in MCF-7 cells ([3]; 10 μM): 87.4 ± 2.7% | % Inhibition of E1-STS activity in placental microsomes ([2]; 10 μM): 65.0 ± 1.8% | % Inhibition of E1-STS activity in placental microsomes ([2]; 25 µM): 85.5 ± 0.6% | % Inhibition of E1-STS activity in placental microsomes ([2]; 50 µM): 92.3 ± 0.3% | % Inhibition of E1-STS activity in placental microsomes ([2]; 100 µM): 95.4 ± 0.2%

C[C@]12CCC3c4ccc(OCc5ccccc5)cc4CCC3C1CC[C@H]2OS(N)(=O)=O (some centres unmarked)
melting point: 91 to 93 °C

NS(=O)(=O)Oc1ccc(Cc2ccc(OS(N)(=O)=O)cc2)cc1 [Compound 18, 4,4′-Bis-sulphamoyloxydiphenylmethane]
% Inhibition of E1-STS activity in MCF-7 cells ([3]; 0.1 μM): 22.2 ± 0.1% | % Inhibition of E1-STS activity in MCF-7 cells ([3]; 1 μM): 50.01 ± 0.1% | % Inhibition of E1-STS activity in MCF-7 cells ([3]; 10 μM): 93.3 ± 0.1% | % Inhibition of E1-STS activity in placental microsomes ([2]; 10 μM): 22.1 ± 0.6% | % Inhibition of E1-STS activity in placental microsomes ([2]; 25 µM): 29.4 ± 0.1% | % Inhibition of E1-STS activity in placental microsomes ([2]; 50 µM): 38.7 ± 4.9% | % Inhibition of E1-STS activity in placental microsomes ([2]; 100 µM): 53.1 ± 0.1%

CC(=O)NS(=O)(=O)O[C@H]1CCC2C3CCc4cc(O)ccc4C3CC[C@@]21C (stereo partly drawn) [BLE99058, 3-Hydroxyestra-1,3,5(10)-trien-17β-O-(N-acetyl)sulfamate]
melting point: 130 to 134 °C (dec.) | inhibition at 0.01 µM ([2]; 10 nM, -ve % means stimulation): 0.9% | inhibition at 1 µM ([2]; 1 μM, -ve % means stimulation): 7.8%

CN(C)S(=O)(=O)O[C@H]1CCC2C3CCc4cc(OCc5ccccc5)ccc4C3CC[C@@]21C (some centres unmarked)
melting point: 117 to 121 °C

NS(=O)(=O)Oc1ccc(C(=O)c2ccccc2)cc1 [Compound 6, Benzophenone-4-O-sulphamate]
% Inhibition of E1-STS activity in MCF-7 cells ([3]; 0.1 μM): <10% | % Inhibition of E1-STS activity in MCF-7 cells ([3]; 1 μM): 33.04 ± 10.68% | % Inhibition of E1-STS activity in MCF-7 cells ([3]; 10 μM): 87.89 ± 2.02% | % Inhibition of E1-STS activity in placental microsomes ([2]; 10 μM): 76.73 ± 2.47% | % Inhibition of E1-STS activity in placental microsomes ([2]; 50 µM): 88.04 ± 0.82% | % Inhibition of E1-STS activity in placental microsomes ([2]; 100 µM): 92.28 ± 0.41%

C[C@]12CCC3c4ccc(OS(N)(=O)=O)cc4CCC3C1CC[C@@H]2OS(=O)(=O)N(Cc1ccccc1)Cc1ccccc1 (stereo partly drawn) [BLE99063, 3-O-Sulfamoyl-estra-1,3,5(10)-trien-17β-O—(N,N-dibenzyl)sulfamate]
melting point: 60 to 64 °C and 58 to 62 °C | inhibition at 0.01 µM ([2]; 10 nM, -ve % means stimulation): -1.9% | inhibition at 1 µM ([2]; 1 μM, -ve % means stimulation): 38.2%

C[C@]12CC[C@@H]3c4ccc(OS(N)(=O)=O)cc4CC[C@H]3[C@@H]1CC[C@@H]2O [BLE00084]
Plate assay % inhibition ([1]; 0.1 μM): 4% | Plate assay % inhibition ([1]; 10 μM): 23%
